Data as given in patent US9445594B2, “Molecules having certain pesticidal utilities, intermediates, compositions, and processes, related thereto” (priority 2014, dated 2016).

Legend:
Format in all cases: in vivo
[1] = test system: Yellow Fever Mosquito (Aedes aegypti, AEDSAE) ("YFM"); experiment: Bioassays on YFM, 96-well plate larval assay; details: about 1 day-old larvae, from 4000 ppm DMSO master plate diluted, room temperature, scored after 3 days
Method: Certain molecules disclosed in this document were tested against YFM using procedures described in the following paragraph. In the reporting of the results, the “YFM Rating Table” was used (See Table Section).
Master plates containing 400 μg of a molecule dissolved in 100 μL of dimethyl sulfoxide (DMSO) (equivalent to a 4000 ppm solution) are used. A master plate of assembled molecules contains 15 μL per well. To this plate, 135 μL of a 90:10 water:acetone mixture is added to each well. A robot (Biomek® NXP Laboratory Automation Workstation) is programmed to dispense 15 μL aspirations from the master plate into an empty 96-well shallow plate (“daughter” plate). There are 6 reps (“daughter” plates) created per master. The created daughter plates are then immediately infested with YFM larvae.
The day before plates are to be treated, mosquito eggs are placed in Millipore water containing liver powder to begin hatching (4 g. into 400 mL). After the daughter plates are created using the robot, they are infested with 220 μL of the liver powder/larval mosquito mixture (about 1 day-old larvae). After plates are infested with mosquito larvae, a non-evaporative lid is used to cover the plate to reduce drying. Plates are held at room temperature for 3 days prior to grading. After 3 days, each well is observed and scored based on mortality.

[2] = test system: Cabbage Looper (Trichoplusia ni, TRIPNI) ("CL"); experiment: Bioassays on CL, 128-well diet tray assay; details: 168 h, second instar larvae, 50 μg/cm^2 on artificial diet, 25° C., five to seven days, average of eight wells, read-out: CL % Control (or Mortality) rating
Method: (§1) Certain molecules disclosed in this document were tested against BAW, CEW, and CL using procedures described in the following examples. In the reporting of the results, the “BAW, CEW, & CL Rating Table” was used (See Table Section).
Bioassays on CL were conducted using a 128-well diet tray assay. one to five second instar CL larvae were placed in each well (3 mL) of the diet tray that had been previously filled with 1 mL of artificial diet to which 50 μg/cm^2 of the test compound (dissolved in 50 μL of 90:10 acetone-water mixture) had been applied (to each of eight wells) and then allowed to dry. Trays were covered with a clear self-adhesive cover and held at 25° C., 14:10 light-dark for five to seven days. Percent mortality was recorded for the larvae in each well; activity in the eight wells was then averaged. The results are indicated in the table entitled “Table ABC: Biological Results” (See Table Section).

[3] = test system: Beet Armyworm (Spodoptera exigua, LAPHEG) ("BAW"); experiment: Bioassays on BAW, 128-well diet tray assay; details: 168 h, second instar larvae, 50 μg/cm^2 on artificial diet, 25° C., five to seven days, average of eight wells, read-out: BAW % Control (or Mortality) rating
Method: as §1
Bioassays on BAW were conducted using a 128-well diet tray assay. one to five second instar BAW larvae were placed in each well (3 mL) of the diet tray that had been previously filled with 1 mL of artificial diet to which 50 μg/cm^2 of the test compound (dissolved in 50 μL of 90:10 acetone-water mixture) had been applied (to each of eight wells) and then allowed to dry. Trays were covered with a clear self-adhesive cover and held at 25° C., 14:10 light-dark for five to seven days. Percent mortality was recorded for the larvae in each well; activity in the eight wells was then averaged. The results are indicated in the table entitled “Table ABC: Biological Results” (See Table Section).

SMILES	YFM % Control (or Mortality) rating [1]	mortality at 50 µg/cm2 [2] [%]	mortality at 50 µg/cm2 [3] [%]
CC(C)c1ccccc1NC(=O)NCCCCc1ccc(-c2ncn(-c3ccc(OC(F)(F)F)cc3)n2)cc1 [F90, 1-(2-Isopropylphenyl)-3-(4-(4-(1-(4-(trifluoromethoxy)phenyl)-1H-1,2,4-triazol-3-yl)phenyl)butyl)urea]	D (No activity noticed in this bioassay)	0	0
CC(C)c1ccccc1NC(=O)Nc1ccc(-c2ncn(-c3ccc(OC(F)(F)F)cc3)n2)cc1 [F33, 1-(2-Isopropylphenyl)-3-(4-(1-(4-(trifluoromethoxy)phenyl)-1H-1,2,4-triazol-3-yl)phenyl)urea]	B (More than 0 - Less than 80)	50 to 100	50 to 100
O=C(Nc1ccc(-c2ncn(-c3ccc(OC(F)(F)F)cc3)n2)cc1)Nc1ccccc1OC(F)(F)F [F26, 1-(2-(Trifluoromethoxy)phenyl)-3-(4-(1-(4-(trifluoromethoxy)phenyl)-1H-1,2,4-triazol-3-yl)phenyl)urea]	D (No activity noticed in this bioassay)	50 to 100	50 to 100
O=C(NCCCc1ccc(-c2ncn(-c3ccc(OC(F)(F)F)cc3)n2)cc1)Nc1ccccc1Cl [F84, 1-(2-Chlorophenyl)-3-(3-(4-(1-(4-(trifluoromethoxy)phenyl)-1H-1,2,4-triazol-3-yl)phenyl)propyl)urea]	B (More than 0 - Less than 80)	50 to 100	50 to 100
O=C(NCCCCc1ccc(-c2ncn(-c3ccc(OC(F)(F)F)cc3)n2)cc1)Nc1ccc(Cl)cc1 [F94, 1-(4-Chlorophenyl)-3-(4-(4-(1-(4-(trifluoromethoxy)phenyl)-1H-1,2,4-triazol-3-yl)phenyl)butyl)urea]	D (No activity noticed in this bioassay)	50 to 100	0
O=C(Nc1ccc(-c2ncn(-c3ccc(OC(F)(F)F)cc3)n2)cc1)Nc1ccccc1Cc1ccccc1 [F51, 1-(2-Benzylphenyl)-3-(4-(1-(4-(trifluoromethoxy)phenyl)-1H-1,2,4-triazol-3-yl)phenyl)urea]	D (No activity noticed in this bioassay)	0 to 50	0 to 50
COc1ccccc1NC(=O)NCCCCc1ccc(-c2ncn(-c3ccc(OC(F)(F)F)cc3)n2)cc1 [F95, 1-(2-Methoxyphenyl)-3-(4-(4-(1-(4-(trifluoromethoxy)phenyl)-1H-1,2,4-triazol-3-yl)phenyl)butyl)urea]	D (No activity noticed in this bioassay)	50 to 100	0
Cc1ccccc1NC(=O)NCc1ccc(-c2ncn(-c3ccc(OC(F)(F)F)cc3)n2)cc1 [F100, 1-(o-Tolyl)-3-(4-(1-(4-(trifluoromethoxy)phenyl)-1H-1,2,4-triazol-3-yl)benzyl)urea]	D (No activity noticed in this bioassay)	0	0
O=C(Nc1ccc(-c2ncn(-c3ccc(OC(F)(F)C(F)(F)F)cc3)n2)cc1)Nc1ccccc1C1CC1 [F15, 1-(2-Cyclopropylphenyl)-3-(4-(1-(4-(perfluoroethoxy)phenyl)-1H-1,2,4-triazol-3-yl)phenyl)urea]	B (More than 0 - Less than 80)	50 to 100	50 to 100
O=C(Nc1ccc(-c2ncn(-c3ccc(OC(F)(F)F)cc3)n2)cc1)Nc1ccccc1C1CC1C1CC1 (stereo not drawn) [F49, 1-(2-([1,1′-Bi(cyclopropan)]-2-yl)phenyl)-3-(4-(1-(4-(trifluoromethoxy)phenyl)-1H-1,2,4-triazol-3-yl)phenyl)urea]	D (No activity noticed in this bioassay)	50 to 100	0 to 50
O=C(NCc1ccc(-c2ncn(-c3ccc(OC(F)(F)F)cc3)n2)cc1)Nc1ccc(Cl)cc1 [F105, 1-(4-Chlorophenyl)-3-(4-(1-(4-(trifluoromethoxy)phenyl)-1H-1,2,4-triazol-3-yl)benzyl)urea]	B (More than 0 - Less than 80)	50 to 100	50 to 100
Cc1cccc(NC(=O)NCc2ccc(-c3ncn(-c4ccc(OC(F)(F)F)cc4)n3)cc2)c1 [F108, 1-(m-Tolyl)-3-(4-(1-(4-(trifluoromethoxy)phenyl)-1H-1,2,4-triazol-3-yl)benzyl)urea]	D (No activity noticed in this bioassay)	0	0
C=C(C)c1ccccc1NC(=O)Nc1ccc(-c2ncn(-c3ccc(OC(F)(F)F)cc3)n2)cc1 [F61, 1-(2-(Prop-1-en-2-yl)phenyl)-3-(4-(1-(4-(trifluoromethoxy)phenyl)-1H-1,2,4-triazol-3-yl)phenyl)urea]	D (No activity noticed in this bioassay)	50 to 100	50 to 100
O=C(NCCCCc1ccc(-c2ncn(-c3ccc(OC(F)(F)F)cc3)n2)cc1)Nc1cccc(Cl)c1 [F93, 1-(3-Chlorophenyl)-3-(4-(4-(1-(4-(trifluoromethoxy)phenyl)-1H-1,2,4-triazol-3-yl)phenyl)butyl)urea]	D (No activity noticed in this bioassay)	50 to 100	0
COc1ccc(NC(=O)NCCCCc2ccc(-c3ncn(-c4ccc(OC(F)(F)F)cc4)n3)cc2)cc1 [F97, 1-(4-Methoxyphenyl)-3-(4-(4-(1-(4-(trifluoromethoxy)phenyl)-1H-1,2,4-triazol-3-yl)phenyl)butyl)urea]	D (No activity noticed in this bioassay)	0	0 to 50
CC(C)c1ccccc1NC(=O)NCCCc1ccc(-c2ncn(-c3ccc(OC(F)(F)F)cc3)n2)cc1 [F78, 1-(2-Isopropylphenyl)-3-(3-(4-(1-(4-(trifluoromethoxy)phenyl)-1H-1,2,4-triazol-3-yl)phenyl)propyl)urea]	A (80-100)	50 to 100	50 to 100
O=C(Nc1ccc(-c2ncn(-c3ccc(OC(F)(F)C(F)(F)F)cc3)n2)cc1)Nc1ccccc1OC(F)(F)F [F1, 1-(4-(1-(4-(Perfluoroethoxy)phenyl)-1H-1,2,4-triazol-3-yl)phenyl)-3-(2-(trifluoromethoxy)phenyl)urea]	D (No activity noticed in this bioassay)	50 to 100	0
FC(F)(F)Oc1ccc(-n2cnc(-c3ccc(NC(=S)Nc4ncccc4-c4ccccc4)cc3)n2)cc1 [F50, 1-(3-Phenylpyridin-2-yl)-3-(4-(1-(4-(trifluoromethoxy)phenyl)-1H-1,2,4-triazol-3-yl)phenyl)thiourea]	D (No activity noticed in this bioassay)	0	0
COc1ccccc1NC(=O)NCCCc1ccc(-c2ncn(-c3ccc(OC(F)(F)F)cc3)n2)cc1 [F81, 1-(2-Methoxyphenyl)-3-(3-(4-(1-(4-(trifluoromethoxy)phenyl)-1H-1,2,4-triazol-3-yl)phenyl)propyl)urea]	B (More than 0 - Less than 80)	50 to 100	50 to 100
